# Measured values as given in patent US8227228B2, “D-amino acid oxidase, and method for production of L-amino acid, 2-oxo acid, or cyclic imine” (priority 2005, dated 2012).
# B1: D-amino acid oxidase (Sungouiella intermedia) (protein)
# chain: MSEYVIVGSGIIGLYTGYKLLESGVPGESITVEAEFLPGDESIKYTSPYAGGNFSGITGDDPDSLKFDKHTYENLPKLQKLLGGPLCGLDMLPATEIWDNVKSKKIDSLKQYLKDYQEIEQEELPEGAKFGVKFTTWNFNCPKFLSNVQKYLLSKNVTFIRKNLTHITQAFGPATKCVFNCTGNGARFLGGVQDAKVYPTRGQVVVIKAPHINENMIRWGDNYATYIIKRPYSHDQLILGGFLQKDDWTPDTLSEQTEDILFRTTNLLPKILNQNPHGPNIEDLEIVRVVAGLRPSRHGGVRIEKEVLDGKLLIHNYGAGGYGYQSGLGMADKAVKLALGQSKL
# Substrate: N[C@H](Cc1ccccc1)C(=O)O
# Test: Measurement of Km value relative to D-Phe
# Format: biochemical, Candida intermedia NBRC0761
# Conditions: other: D-Phe as substrate, various substrate concentrations, reciprocal plot (FIG. 2); pH 8.0; 30.0 °C
# Description: (§1) Moreover, the D-amino acid oxidase activity for examining the properties of the enzyme shown below was measured as follows. 250 μl of a substrate solution containing 100 mM DL-phenylalanine and 50 mM Tris-hydrochloric acid buffer (pH 8.0) was maintained at 30° C. (each temperature for determining the range of operative temperature and the optimal temperature) for 5 min, mixed with 50 μl of an appropriately diluted enzyme solution, and the mixture was reacted at 30° C. (each temperature for determining the range of operative temperature and the optimal temperature) for 5 min. 10 μl of 3N HCl was added to stop the reaction. Then, 500 μl of a chromogenic solution containing 0.80 mM 4-aminoantipyrine, 1.31 mM N-ethyl-N-(2-hydroxy-3-sulfopropyl)-m-toluidine, 6 u/ml peroxidase (manufactured by TOYOBO Inc.) and 50 mM Tris-hydrochloric acid buffer (pH 8.0), which was maintained at 30° C. for 5 min, was mixed with 100 μl of the aforementioned reaction mixture. Absorption at 555 nm was measured, and the amount of hydrogen peroxide produced in the reaction mixture was quantified based on the analytical curve prepared in advance.
# Using D-Phe as a substrate, the activity was measured at various substrate concentrations and the Km value relative to D-Phe was determined. From the results shown in FIG. 2, the Km value relative to D-Phe was about 1.7 (not less than 1.6 and not more than 1.8) mM.
row,Molecule,Km [mM]
1,B1,1.7

# Target: T1, D-amino acid oxidase (Sungouiella intermedia, UniProt A0A1L0GHW3)
# Test: Specific activity of purified D-amino acid oxidase (hydrogen peroxide quantified with peroxidase)
# Format: biochemical, Candida intermedia NBRC0761
# Conditions: 30° C.; 1 unit = 1 μmol hydrogen peroxide in 1 minute; DL-phenylalanine, pH 8.0
# Description: An enzyme solution is appropriately diluted, mixed with a chromogenic solution containing 50 mM DL-phenylalanine, 0.80 mM 4-aminoantipyrine, 1.31 mM N-ethyl-N-(2-hydroxy-3-sulfopropyl)-m-toluidine, 6 u/ml peroxidase (manufactured by TOYOBO Inc.), and 50 mM Tris-hydrochloric acid buffer (pH 8.0) at 1:5, and reacted at 30° C. for 30 min. The absorbance at 555 nm is measured, and the amount of hydrogen peroxide produced in the reaction mixture is quantified based on the analytical curve prepared in advance. In the embodiment, unless otherwise specified, this method was used to assay the D-amino acid oxidase activity.
# The activity of the D-amino acid oxidase was measured by quantifying hydrogen peroxide produced in the reaction by an enzyme method using peroxidase. Hydrogen peroxide was quantified by an enzyme method as follows. […] Absorption at 555 nm was measured, and the amount of hydrogen peroxide produced in the reaction mixture was quantified based on the analytical curve prepared in advance. […] In addition, protein was quantified according to a Bradford method using BSA as a standard protein. […]
row,Molecule,specific activity [units/mg protein]
1,B1,44.8

# Target: T1, D-amino acid oxidase
# Test: Substrate specificity of purified D-amino acid oxidase
# Format: biochemical, Candida intermedia NBRC0761
# Conditions: purified enzyme; activity to D-Phe as 100%; each substrate in place of DL-phenylalanine
# Description: The activity of the D-amino acid oxidase was measured by quantifying hydrogen peroxide produced in the reaction by an enzyme method using peroxidase. Hydrogen peroxide was quantified by an enzyme method as follows. 250 μl of a chromogenic solution containing 50 mM DL-phenylalanine, 0.80 mM 4-aminoantipyrine, 1.31 mM N-ethyl-N-(2-hydroxy-3-sulfopropyl)-m-toluidine, 6 u/ml peroxidase (manufactured by TOYOBO Inc.) and 50 mM Tris-hydrochloric acid buffer (pH 8.0) was mixed with 50 μl of an appropriately diluted enzyme solution, and the mixture was reacted at 30° C. for 30 min. Absorption at 555 nm was measured, and the amount of hydrogen peroxide produced in the reaction mixture was quantified based on the analytical curve prepared in advance. The amount of the enzyme that produced 1 μmol of hydrogen peroxide in 1 minute was defined as 1 unit. In addition, protein was quantified according to a Bradford method using BSA as a standard protein. The specific activity of the purified D-amino acid oxidase was 44.8 units/mg protein (30° C.).
# as §1
# The substrate specificity of the purified D-amino acid oxidase was examined. The substrate DL-phenylalanine used in the aforementioned enzyme activity assay was changed to each substrate, and the enzyme activity was measured.
row,Molecule,relative activity (%)
1,CC(C)C[C@@H](N)C(=O)O [D-Leu],96.7
2,C[C@H](N)C(=O)O [L-Ala],0.0
3,NC(=O)C[C@@H](N)C(=O)O [D-Asn],5.8
4,O=C(O)[C@H]1CCCN1 [D-Pro],44.3
5,NCC(=O)O [Gly],0.0
6,CC(C)[C@@H](N)C(=O)O [D-Val],27.3
7,N[C@H](Cc1ccc(F)cc1)C(=O)O [D-p-F-Phe],167.2
8,CCCC(N)C(=O)O (racemic) [DL-Norvaline],93.8
9,NC(N)=NCCCC(N)C(=O)O [D-Arg],0.05
10,CSCC[C@H](N)C(=O)O [L-Met],0.0
11,"N[C@@H](C(=O)O)c1ccc(O)c(O)c1 [D-3,4-dihydroxy-phenylglycine]",5.7
12,N[C@H](CO)C(=O)O [D-Ser],11.3
13,N[C@H](CCC(=O)O)C(=O)O [D-Glu],0.0
14,NCCCC[C@@H](N)C(=O)O [D-Lys],0.0
15,C[C@H](O)[C@@H](N)C(=O)O [D-Thr],4.7
16,CSCC[C@@H](N)C(=O)O [D-Met],100.5
17,CC[C@@H](C)[C@@H](N)C(=O)O [D-Ile],16.6
18,CCC[C@H](N)C(=O)O [L-Norvaline],0.0
19,O=C(O)[C@@H]1CCCN1 [L-Pro],0.0
20,CCC(C(=O)O)c1ccccc1 (racemic) [DL-α-phenylbutyric acid],194.7
21,C[C@@H](N)C(=O)O [D-Ala],129.1
22,NC(=O)CC[C@@H](N)C(=O)O [D-Gln],5.8
23,NC(CCBr)C(=O)O (racemic) [DL-2-amino-4-Br-butyric acid],17.2
24,N[C@H](CC(=O)O)C(=O)O [D-Asp],0.0
25,N[C@H](Cc1c[nH]cn1)C(=O)O [D-His],4.2

# Target: T1, D-amino acid oxidase
# Test: Temperature stability and pH stability (residual activity)
# Format: physicochemical, Candida intermedia NBRC0761
# Conditions: residual activity after 30° C. for 16 hr at each pH (FIG. 6)
# Description: as §1
# The temperature stability of the enzyme was measured based on the residual activity after a treatment at each temperature for 10 min.
# The pH stability was examined. […]
row,Molecule,pH stability (comparatively stable at)
1,B1,7.8-8.7 pH

# Same assay, conditions: residual activity after treatment at each temperature for 10 min (FIG. 5)
row,Molecule,temperature stability (stable at) [°C]
1,B1,≤ 40

# Target: T1, D-amino acid oxidase
# Test: Range of reaction temperature and pH, optimal temperature and pH
# Format: biochemical, Candida intermedia NBRC0761
# Conditions: FIG. 4
# Description: as §1
# The range of reaction temperature and the optimal temperature were examined.
# The range of reaction pH and the optimal pH were examined. […] The enzyme was active at least within the examined range of pH 6-10.5, and the optimal pH was 8.5-9.5.
row,Molecule,optimal pH
1,B1,8.5-9.5 pH

# Same assay, conditions: examined range; activity at 30° C. as 100% (FIG. 3)
row,Molecule,range of reaction temperature (highly active)
1,B1,20-60 °C

# Same assay, conditions: examined range; activity at pH 8.0 as 100% (FIG. 4)
row,Molecule,range of reaction pH (active)
1,B1,6-10.5 pH
